Test results as given in patent publication US10508109B2 (priority 2015, dated 2019).
Counter-ions that a name gives are not always drawn. Like-named read-outs stand apart in the source and are kept apart here.

How the values were obtained:
SUV39H2 = SUV39H2 (Homo sapiens (Human), UniProt Q9H5I1); conditions: read-out: IC50 (μM) Suv 39H2 assay
A549 = experiment: Cell-based assay, anti-proliferative activity (Cell Counting Kit-8, 72 hours); conditions: Homo sapiens, read-out: IC50 (μM) A549
Summary of the method: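 Following seeding into 96-well microtiter plates, the cells receive candidate inhibitors, and cellular growth is quantified at the end of the exposure period. An IC50 is computed for each compound.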

HCT-116 = experiment: as above; conditions: Homo sapiens, read-out: IC50 (μM) HCT-116
Summary of the method: (§1)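 Cells seeded at 2,000–3,000 per well and exposed 72 h to compound at 0–100 micro-M (2-fold series). Growth measured with CCK-8; IC50 taken as anti-proliferative indicator.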

HFL1 = experiment: as above; conditions: Homo sapiens, read-out: IC50 (μM) HFL1
Summary of the method: as §1

CCD-18Co = experiment: as above; conditions: Homo sapiens, read-out: IC50 (μM) CCD-18Co
Summary of the method: as §1

PC14 = experiment: as above; conditions: Homo sapiens, read-out: IC50 (μM) PC14
Summary of the method: as §1

[1] = A549 cells, 72 hours, Cell Counting Kit-8
[2] = HCT-116 cells, 72 hours, Cell Counting Kit-8
[3] = HFL1 cells, 72 hours, Cell Counting Kit-8
[4] = CCD-18Co cells, 72 hours, Cell Counting Kit-8
[5] = PC-14, PC14 cells, 72 hours, Cell Counting Kit-8
[6] = A549 cells, Cell Counting Kit-8, 72 hours
[7] = HCT-116 cells, Cell Counting Kit-8, 72 hours
[8] = HFL1 cells, Cell Counting Kit-8, 72 hours
[9] = CCD-18Co cells, Cell Counting Kit-8, 72 hours
[10] = PC-14, PC14 cells, Cell Counting Kit-8, 72 hours

Chain of SUV39H2 (Q9H5I1 whole entry): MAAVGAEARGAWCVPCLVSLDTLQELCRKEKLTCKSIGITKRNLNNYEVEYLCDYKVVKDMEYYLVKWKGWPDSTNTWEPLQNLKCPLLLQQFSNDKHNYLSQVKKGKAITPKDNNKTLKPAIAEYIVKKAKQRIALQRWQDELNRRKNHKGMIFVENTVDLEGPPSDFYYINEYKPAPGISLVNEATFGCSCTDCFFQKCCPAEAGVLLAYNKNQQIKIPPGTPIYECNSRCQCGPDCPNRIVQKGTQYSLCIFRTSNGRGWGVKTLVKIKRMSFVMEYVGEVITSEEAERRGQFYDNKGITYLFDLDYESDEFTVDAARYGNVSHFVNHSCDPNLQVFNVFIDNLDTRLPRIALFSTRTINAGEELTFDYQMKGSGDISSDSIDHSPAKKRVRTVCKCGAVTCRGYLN

SMILES	IC50 (SUV39H2; enzyme assay)	IC50 (A549; [1])	IC50 (HCT-116; [2])	IC50 (HFL1; [3])	IC50 (CCD-18Co; [4])	IC50 (PC14; [5])	IC50 (A549; [6])	IC50 (HCT-116; [7])	IC50 (HFL1; [8])	IC50 (CCD-18Co; [9])	IC50 (PC14; [10])	IC50 (A549; A549, 72 h)	IC50 (HCT-116; HCT-116, 72 h)	IC50 (HFL1; HFL1, 72 h)	IC50 (CCD-18Co; CCD-18Co, 72 h)	IC50 (PC14; PC-14, 72 h)	IC50 (SUV39H2)
COc1cc(OC)c(-c2cn3ccc(N4CCN(C(=O)OC(C)(C)C)CC4)cc3n2)cc1Cl [Example 232, tert-butyl 4-[2-(5-chloro-2,4-dimethoxyphenyl)imidazo[1,2-a]pyridin-7-yl]piperazine-1-carboxylate]	0.0291 µM	1.5 µM	1.7 µM	1.1 µM	1.5 µM	0.73 µM	–	–	–	–	–	–	–	–	–	–	–
COc1cc(OC)c(-c2cn3ccc(N4CCCN(S(=O)(=O)C(F)(F)F)CC4)cc3n2)cc1Cl [Example 188, 2-(5-chloro-2,4-dimethoxyphenyl)-7-{4-[(trifluoromethyl)sulfonyl]-1,4-diazepan-1-yl}imidazo[1,2-a]pyridine]	0.0369 µM	–	–	–	–	–	1.6 µM	1.6 µM	1.5 µM	1.4 µM	1.6 µM	–	–	–	–	–	–
CCOC(=O)CCN1CCN(c2ccn3cc(-c4cc(Cl)c(OC)cc4OC)nc3c2)CC1 [Example 132, ethyl 3-(4-(2-(5-chloro-2,4-dimethoxyphenyl)imidazo[1,2-a]pyridin-7-yl)piperazin-1-yl)propanoate]	0.0124 µM	–	–	–	–	–	11 µM	9.8 µM	7.6 µM	22 µM	9 µM	–	–	–	–	–	–
COc1cc(OC)c(-c2cn3ccc(C4=CCN(P(=O)(OC)OC)CC4)cc3n2)cc1Cl [Example 195, dimethyl{4-[2-(5-chloro-2,4-dimethoxyphenyl)imidazo[1,2-a]pyridin-7-yl]-5,6-dihydropyridin-1(2H)-yl}phosphonate]	0.0375 µM	–	–	–	–	–	–	–	–	–	–	0.7 µM	0.93 µM	2.8 µM	5.5 µM	0.51 µM	–
COc1cc(Cl)c(Cl)cc1-c1cn2ccc(N3CCCC3)cc2n1 [Example 233, 2-(4,5-dichloro-2-methoxyphenyl)-7-(pyrrolidin-1-yl)imidazo[1,2-a]-pyridine]	0.085 µM	2.6 µM	2.7 µM	2.7 µM	2.8 µM	1.8 µM	–	–	–	–	–	–	–	–	–	–	–
COc1cc(OC)c(-c2cn3ccc(N[C@H]4CC[C@H](CN5CCN(S(C)(=O)=O)CC5)CC4)cc3n2)cc1Cl [Example 289, 2-(5-chloro-2,4-dimethoxyphenyl)-trans-N-(4-((4-(methylsulfonyl)piperazin-1-yl)methyl)cyclohexyl)imidazo-[1,2-a]pyridin-7-amine]	0.028 µM	0.63 µM	0.83 µM	0.74 µM	0.72 µM	0.77 µM	–	–	–	–	–	–	–	–	–	–	–
COc1cc(OC)c(-c2cn3ccc(-c4ccc(C(=O)NCC(O)CN)cc4)cc3n2)cc1Cl (stereo not drawn) [Example 256, N-(3-amino-2-hydroxypropyl)-4-(2-(5-chloro-2,4-dimethoxyphenyl)-imidazo[1,2-a]pyridin-7-yl)benzamide]	0.0217 µM	10 µM	10 µM	10 µM	10 µM	10 µM	–	–	–	–	–	–	–	–	–	–	–
COc1cc(OC)c(-c2cn3ccc(C4=CCN(CCO)CC4)cc3n2)cc1Cl [Example 134, 2-(4-(2-(5-chloro-2,4-dimethoxyphenyl)imidazo[1,2-a]pyridin-7-yl)-5,6-dihydropyridin-1(2H)-yl)ethanol]	0.0576 µM	–	–	–	–	–	5 µM	6.8 µM	3.8 µM	5.4 µM	5.3 µM	–	–	–	–	–	–
COc1cc(OC)c(-c2cn3ccc(N4CC[C@H](N)C4)cc3n2)cc1Cl [Example 47, (S)-1-(2-(5-Chloro-2,4-dimethoxyphenyl)imidazo[1,2-a]pyridin-7-yl)pyrrolidin-3-amine hydrochloride]	–	–	–	–	–	–	–	–	–	–	–	3 µM	3.4 µM	2 µM	3.5 µM	4.5 µM	0.00829 µM
COc1cc(OC)c(-c2cn3ccc(N4CCN(c5ccnc(N6CCCCC6)n5)CC4)cc3n2)cc1Cl [Example 295, 2-(5-chloro-2,4-dimethoxyphenyl)-7-(4-(2-(piperidin-1-yl)pyrimidin-4-yl)piperazin-1-yl)imidazo[1,2-a]pyridine]	0.0598 µM	0.89 µM	0.93 µM	1.4 µM	1.3 µM	0.93 µM	–	–	–	–	–	–	–	–	–	–	–
CCc1cc(OC)c(Cl)cc1-c1cn2ccc(N3CCNCC3)cc2n1 [Example 260, 2-(5-chloro-2-ethyl-4-methoxyphenyl)-7-(piperazin-1-yl)imidazo-[1,2-a]pyridine]	0.0344 µM	6.1 µM	3.4 µM	3.6 µM	3.5 µM	3.4 µM	–	–	–	–	–	–	–	–	–	–	–
COc1cc(OC)c(-c2cn3ccc(N4CCN(S(C)(=O)=O)CC4)nc3n2)cc1Cl [Example 177, 2-(5-chloro-2,4-dimethoxyphenyl)-7-(4-(methylsulfonyl)piperazin-1-yl)-imidazo[1,2-a]pyrimidine]	0.0408 µM	–	–	–	–	–	3.8 µM	6 µM	8 µM	11 µM	2.5 µM	–	–	–	–	–	–
COc1cc(OC)c(-c2cn3ccc(N4CCN(CCN(C)C)CC4)cc3n2)cc1Cl [Example 88, 2-(4-(2-(5-chloro-2,4-dimethoxyphenyl)imidazo[1,2-a]pyridin-7-yl)piperazin-1-yl)-N,N-dimethylethanamine]	0.00884 µM	–	–	–	–	–	3.3 µM	3.9 µM	3 µM	5.6 µM	2.9 µM	–	–	–	–	–	–
COc1cc(C)c(-c2cn3ccc(N4CCN(S(=O)(=O)C5CC5)C(COCCN(C)C)C4)cc3n2)cc1Cl (stereo not drawn) [Example 264, 2-((4-(2-(5-chloro-4-methoxy-2-methylphenyl)imidazo[1,2-a]pyridin-7-yl)-1-(cyclopropylsulfonyl)piperazin-2-yl)methoxy)-N,N-dimethylethanamine]	0.07 µM	5.6 µM	8.5 µM	4.7 µM	5 µM	4.5 µM	–	–	–	–	–	–	–	–	–	–	–
COc1cc(OC)c(-c2cn3ccc(N4CCC(NC(C)=O)C4)nc3n2)cc1Br (stereo not drawn) [Example 66]	0.00747 µM	–	–	–	–	–	25 µM	18 µM	26 µM	27 µM	16 µM	–	–	–	–	–	–
COc1cc(OC)c(-c2cn3ccc(N4CCN(c5ccnc(N6CCOCC6)n5)CC4)cc3n2)cc1Cl [Example 294, 4-(4-(4-(2-(5-chloro-2,4-dimethoxyphenyl)imidazo[1,2-a]pyridin-7-yl)-piperazin-1-yl)pyrimidin-2-yl)morpholine]	0.0283 µM	1.1 µM	0.78 µM	2.3 µM	1.3 µM	1 µM	–	–	–	–	–	–	–	–	–	–	–
COc1cc(OC)c(-c2cn3cc(NCCN)c(N4CCOCC4)c(F)c3n2)cc1Cl [Example 208, N^1-(2-(5-chloro-2,4-dimethoxyphenyl)-8-fluoro-7-morpholinoimidazo-[1,2-a]pyridine-6-yl)ethane-1,2-diamine]	0.0291 µM	–	–	–	–	–	10 µM	10 µM	8.4 µM	5.9 µM	8.4 µM	–	–	–	–	–	–
COc1cc(OC)c(-c2cn3ccc(N)cc3n2)cc1Cl [Example 151, 2-(5-chloro-2,4-dimethoxyphenyl)imidazo[1,2-a]pyridin-7-amine]	0.00827 µM	–	–	–	–	–	5.1 µM	2.3 µM	1.9 µM	2.4 µM	2.9 µM	–	–	–	–	–	–
